Assay results taken from ChEMBL document CHEMBL1135872, “Oxyaniliniums as acetylcholinesterase inhibitors for the reversal of neuromuscular block” (Bioorg Med Chem Lett, 2002).

Columns and labels:
Acetylcholinesterase = Acetylcholinesterase (Homo sapiens, UniProt P22303); assay: In vitro inhibitory activity against human recombinant AChE
Cavia porcellus = organism: Cavia porcellus; assay: In vitro potency in reversing vecuronium-induced block in guinea pig hemidiaphram; assay type: functional
Felis catus [1] = assay: Tested for change in LV dp/dt at dose of 2.1 umol/kg in cat; assay type: functional
Felis catus [2] = assay: Tested for change in arterial pressure at dose of 2.1 umol/kg in cat; assay type: functional, Artery
Felis catus [3] = assay: Tested for change in heart rate at dose of 2.1 umol/kg in cat; assay type: functional
Felis catus [4] = assay: Tested for effect on autonomic vagal membrane at dose of 2.1 umol/kg in cat; assay type: functional
Felis catus [5] = assay: Tested for effect on nictitating membrane at dose of 2.1 umol/kg in cat; assay type: functional
Felis catus [6] = organism: Felis catus; assay: Effective dose required to reverse vecuronium-induced neuromuscular block in cat; assay type: functional
Felis catus [7] = assay: Tested for change in LV pressure at dose of 2.1 umol/kg in cat; assay type: functional
Felis catus [8] = assay: Tested for change in LV dp/dt at dose of 2.56 umol/kg in cat; assay type: functional
Felis catus [9] = assay: Tested for change in arterial pressure at dose of 2.56 umol/kg in cat; assay type: functional, Artery
Felis catus [10] = assay: Tested for change in heart rate at dose of 2.56 umol/kg in cat; assay type: functional
Felis catus [11] = assay: Tested for effect on autonomic vagal membrane at dose of 2.56 umol/kg in cat; assay type: functional
Felis catus [12] = assay: Tested for effect on nictitating membrane at dose of 2.56 umol/kg in cat; assay type: functional
Felis catus [13] = assay: Tested for change in LV pressure at dose of 2.56 umol/kg in cat; assay type: functional
Felis catus [14] = assay: Tested for change in LV dp/dt at dose of 1.28 umol/kg in cat; assay type: functional
Felis catus [15] = assay: Tested for change in arterial pressure at dose of 1.28 umol/kg in cat; assay type: functional, Artery
Felis catus [16] = assay: Tested for effect on autonomic vagal membrane at dose of 1.28 umol/kg in cat; assay type: functional
Felis catus [17] = assay: Tested for effect on nictitating membrane at dose of 1.28 umol/kg in cat; assay type: functional
Felis catus [18] = assay: Tested for change in LV pressure at dose of 1.28 umol/kg in cat; assay type: functional
Felis catus [19] = assay: Tested for change in heart rate at dose of 1.28 umol/kg in cat; assay type: functional
Felis catus [20] = assay: Tested for change in LV dp/dt at dose of 0.076 umol/kg in cat; assay type: functional
Felis catus [21] = assay: Tested for change in LV pressure at dose of 0.076 umol/kg in cat; assay type: functional
Felis catus [22] = assay: Tested for change in heart rate at dose of 0.076 umol/kg in cat; assay type: functional
Felis catus [23] = assay: Tested for effect on autonomic vagal membrane at dose of 0.076 umol/kg in cat; assay type: functional
Felis catus [24] = assay: Tested for effect on nictitating membrane at dose of 0.076 umol/kg in cat; assay type: functional
Felis catus [25] = assay: Tested for change in arterial pressure at dose of 0.076 umol/kg in cat; assay type: functional, Artery
Felis catus [26] = assay: Tested for change in LV dp/dt at dose of 1.026 umol/kg in cat; assay type: functional
Felis catus [27] = assay: Tested for change in LV pressure at dose of 1.026 umol/kg in cat; assay type: functional
Felis catus [28] = assay: Tested for change in heart rate at dose of 1.026 umol/kg in cat; assay type: functional
Felis catus [29] = assay: Tested for effect on autonomic vagal membrane at dose of 1.026 umol/kg in cat; assay type: functional
Felis catus [30] = assay: Tested for effect on nictitating membrane at dose of 1.026 umol/kg in cat; assay type: functional
Felis catus [31] = assay: Tested for change in arterial pressure at dose of 1.026 umol/kg in cat; assay type: functional, Artery

Chain of Acetylcholinesterase (P22303 whole entry): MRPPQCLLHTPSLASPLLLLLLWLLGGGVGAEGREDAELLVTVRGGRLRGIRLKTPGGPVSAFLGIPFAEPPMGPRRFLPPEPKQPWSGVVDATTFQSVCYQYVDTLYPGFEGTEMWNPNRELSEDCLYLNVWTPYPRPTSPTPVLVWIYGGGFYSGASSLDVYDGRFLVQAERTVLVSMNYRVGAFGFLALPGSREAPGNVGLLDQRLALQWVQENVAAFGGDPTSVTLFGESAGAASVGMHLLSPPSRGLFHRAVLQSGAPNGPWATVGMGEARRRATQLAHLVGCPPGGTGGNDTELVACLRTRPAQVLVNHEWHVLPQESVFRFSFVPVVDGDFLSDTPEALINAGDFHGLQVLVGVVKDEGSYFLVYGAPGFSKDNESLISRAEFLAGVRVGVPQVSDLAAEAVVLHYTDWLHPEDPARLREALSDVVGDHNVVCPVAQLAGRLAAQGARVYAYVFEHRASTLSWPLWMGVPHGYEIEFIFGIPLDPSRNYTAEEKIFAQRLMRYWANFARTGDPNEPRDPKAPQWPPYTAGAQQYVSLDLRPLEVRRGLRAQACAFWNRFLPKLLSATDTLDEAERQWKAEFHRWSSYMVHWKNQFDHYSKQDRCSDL

| SMILES | IC50 (Acetylcholinesterase) | IC50 (Cavia porcellus) | other results |
| --- | --- | --- | --- |
| C=CC[N+](C)(C)Cc1cccc(O)c1 | > 10 µM | > 3 µM | – |
| C=CC[N+](C)(C)c1ccccc1O.[Br-] | 1.85 µM | 74 µM | Change (Felis catus [1]): 8%; Change (Felis catus [2]): 2%; Change (Felis catus [3]): 1%; Change (Felis catus [4]): 5%; Change (Felis catus [5]): 5%; ED50 (Felis catus [6]): 0.5 µmol/kg; Change (Felis catus [7]): 12% |
| C=C(C)C[N+](C)(C)c1ccccc1OC | > 10 µM | > 3 µM | – |
| COc1ccc(C(=O)COc2ccc([N+](C)(C)Cc3ccccc3)cc2)cc1OC | 10 µM | 19.4 µM | – |
| C=C(C)C[N+](C)(C)c1cccc(O)c1 | > 10 µM | > 3 µM | – |
| C=CC[N+](C)(C)Cc1cccc(OC)c1 | > 10 µM | > 3 µM | – |
| C=CCC[N+](C)(C)c1ccccc1O | 10 µM | > 10 µM | – |
| COc1ccc(C(=O)COc2cccc([N+](C)(C)Cc3ccccc3)c2)cc1OC.[Br-] | 0.33 µM | 1.69 µM | Change (Felis catus [8]): 82%; Change (Felis catus [9]): 56%; Change (Felis catus [10]): 8%; Change (Felis catus [11]): 5%; Change (Felis catus [12]): 34%; Change (Felis catus [13]): 63% |
| C=CC[N+](C)(C)c1cccc(O)c1 | 3 µM | 13 µM | – |
| COc1ccc(C(=O)CCc2ccc([N+](C)(C)Cc3ccccc3)cc2)cc1OC | 1.3 µM | 4.11 µM | – |
| COc1ccc(C(=O)COc2cccc([N+](C)(C)C)c2)cc1OC | 10 µM | 7.08 µM | – |
| C=CC[N+](C)(C)c1ccc(O)cc1 | > 10 µM | > 3 µM | – |
| C[N+](C)(C)Cc1cccc(O)c1 | > 10 µM | > 3 µM | – |
| COc1ccc(C(=O)COc2ccc([N+](C)(C)C)cc2)cc1OC | 10 µM | 9.8 µM | – |
| CC(=O)Oc1ccccc1[N+](C)(C)Cc1ccccc1 | > 10 µM | > 3 µM | – |
| C=CC[N+](C)(C)c1ccccc1OC.[Br-] | 1 µM | 2.89 µM | Change (Felis catus [14]): 9%; Change (Felis catus [15]): 24%; Change (Felis catus [16]): 41%; Change (Felis catus [17]): 2%; ED50 (Felis catus [6]): 0.22 µmol/kg; Change (Felis catus [18]): 9%; Change (Felis catus [19]): 2% |
| CN(C)C(=O)Oc1cccc([N+](C)(C)C)c1.[Br-] [NEOSTIGMINE BROMIDE] | – | 0.028 µM | Change (Felis catus [20]): 12%; Change (Felis catus [21]): -14%; Change (Felis catus [22]): 4%; Change (Felis catus [23]): 62%; Change (Felis catus [24]): 6%; Change (Felis catus [25]): 22% |
| C=C(C)C[N+](C)(C)c1ccccc1O | > 10 µM | > 3 µM | – |
| COc1cccc(C[N+](C)(C)Cc2ccccc2)c1 | > 10 µM | – | – |
| COc1cccc([N+](C)(C)Cc2ccccc2)c1 | > 10 µM | > 3 µM | – |

| SMILES | IC50 (Acetylcholinesterase) | IC50 (Cavia porcellus) | other results |
| --- | --- | --- | --- |
| C[N+](C)(Cc1ccccc1)c1cccc(O)c1 | > 10 µM | > 3 µM | – |
| COc1ccccc1[N+](C)(C)Cc1ccccc1 | > 10 µM | > 3 µM | – |
| CC(=O)Oc1cccc([N+](C)(C)Cc2ccccc2)c1 | > 10 µM | > 3 µM | – |
| C[N+](C)(Cc1ccccc1)Cc1cccc(O)c1 | > 10 µM | – | – |
| COc1ccc(C(=O)CCc2ccc([N+](C)(C)C)cc2)cc1OC | 3 µM | 2 µM | – |
| COc1ccc(C(=O)CCc2cccc([N+](C)(C)C)c2)cc1OC | > 10 µM | – | – |
| C=CC[N+](C)(C)c1ccc(OC(C)=O)cc1 | > 10 µM | > 3 µM | – |
| C=C(C)C[N+](C)(C)c1cccc(OC)c1 | > 10 µM | > 3 µM | – |
| C[N+](C)(Cc1ccccc1)c1ccccc1O | > 10 µM | > 3 µM | – |
| COc1ccc([N+](C)(C)Cc2ccccc2)cc1 | > 10 µM | > 3 µM | – |
| C=CC[N+](C)(C)c1cccc(OC(C)=O)c1 | 1 µM | 3.87 µM | – |
| COc1ccc(C(=O)CCc2cccc([N+](C)(C)Cc3ccccc3)c2)cc1OC | 1.04 µM | > 3 µM | – |
| COc1cccc(C[N+](C)(C)C)c1 | > 10 µM | – | – |
| C[N+](C)(Cc1ccccc1)c1ccc(O)cc1 | > 10 µM | > 3 µM | – |
| C=C(C)C[N+](C)(C)c1ccc(O)cc1 | > 10 µM | > 3 µM | – |
| C=CC[N+](C)(C)c1cccc(OC)c1 | > 10 µM | > 3 µM | – |
| CC(=O)Oc1ccc([N+](C)(C)Cc2ccccc2)cc1 | > 10 µM | > 3 µM | – |
| C=CC[N+](C)(C)c1ccc(OCC(=O)c2ccc(OC)c(OC)c2)cc1 | 10 µM | 0.5 µM | – |
| CC[N+](C)(C)c1cccc(O)c1.[Br-] [EDROPHONIUM BROMIDE] | – | 2.77 µM | Change (Felis catus [26]): 20%; Change (Felis catus [27]): 23%; Change (Felis catus [28]): 2%; Change (Felis catus [29]): -67%; Change (Felis catus [30]): 7%; Change (Felis catus [31]): 22% |
| C=CC[N+](C)(C)c1ccc(OC)cc1 | > 10 µM | > 3 µM | – |
